Data from article PMC7170385, “The selenium-containing drug ebselen potently disrupts LEDGF/p75-HIV-1 integrase interaction by targeting LEDGF/p75” (Journal of Enzyme Inhibition and Medicinal Chemistry, 2020).
Where two headings read alike, the source gives them in different places.

How the values were obtained:
[1] = molecular target: T1, LEDGF/p75 IBD-HIV-1 IN interaction (Homo sapiens, UniProt O75475); experiment: HTRF-based LEDGF/p75 IBD-IN interaction assay
T1 sequence (O75475 347-429 limits assumed): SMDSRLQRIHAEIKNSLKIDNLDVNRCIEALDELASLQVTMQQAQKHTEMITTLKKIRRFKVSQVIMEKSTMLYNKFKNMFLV

[2] = tested on: Hepatitis C Virus NS3 Helicase-Nucleic Acid interaction; design: method as in Mukherjee et al.[53]; details: ref Mukherjee et al.[53], cited from earlier work
[3] = molecular target: Trypanosoma brucei hexokinase 1; design: method as in Gordhan et al.[47]; details: ref Gordhan et al.[47]; cited from earlier work
HIV-1 = tested on: HIV-1; design: method as in PMID 26810656; details: previous study; read-out: 50% effective concentration (EC50), replication of HIV-1; cited from earlier work
[4] = tested on: Pseudomonas aeruginosa Diguanylate Cyclases; design: method as in Lieberman et al.[55]; details: ref Lieberman et al.[55]; cited from earlier work
[5] = tested on: Mycobacterium tuberculosis antigen 85; design: method as in Favrot et al.[52]; details: ref Favrot et al.[52]; cited from earlier work
[6] = molecular target: Cryptosporidium parvum Inosine 5′-monophosphate dehydrogenase; design: method as in Sarwono et al.[54]; details: ref Sarwono et al.[54]; cited from earlier work
[7] = design: method as in PMID 26810656; details: previous study; read-out: half-maximal cytotoxic concentration (CC50); cited from earlier work
[8] = molecular target: Bacillus anthracis thioredoxin reductase; details: ref Gustafsson et al.[49]; cited from earlier work
[9] = tested on: Tumor marker endothelial 8 and protective antigen interaction; details: cited from earlier work
[10] = tested on: Escherichia coli thioredoxin reductase; design: method as in Lu et al.[48]; details: cell marked (Ki); ref Lu et al.[48]; cited from earlier work
[11] = tested on: Clostridium difficile cysteine protease domain; design: method as in Bender et al.[50]; details: ref Bender et al.[50]; cited from earlier work
[12] = molecular target: New Delhi metallo-β-lactamase; design: method as in Chiou et al.[51]; details: ref Chiou et al.[51]; cited from earlier work
[13] = molecular target: Cryptosporidium parvum glucose-6-phosphate isomerase; design: method as in Eltahan et al.[46]; details: ref Eltahan et al.[46]; cited from earlier work
[14] = tested on: C-terminal domain of HIV-1 capsid; design: method as in Thenin-Houssier et al.[39]; details: ref Thenin-Houssier et al.[39]; cited from earlier work
LEDGF/p75 = LEDGF/p75 (Homo sapiens, UniProt O75475); experiment: Biolayer interferometry (BLI) binding assay
LEDGF/p75, sequence (O75475 whole entry): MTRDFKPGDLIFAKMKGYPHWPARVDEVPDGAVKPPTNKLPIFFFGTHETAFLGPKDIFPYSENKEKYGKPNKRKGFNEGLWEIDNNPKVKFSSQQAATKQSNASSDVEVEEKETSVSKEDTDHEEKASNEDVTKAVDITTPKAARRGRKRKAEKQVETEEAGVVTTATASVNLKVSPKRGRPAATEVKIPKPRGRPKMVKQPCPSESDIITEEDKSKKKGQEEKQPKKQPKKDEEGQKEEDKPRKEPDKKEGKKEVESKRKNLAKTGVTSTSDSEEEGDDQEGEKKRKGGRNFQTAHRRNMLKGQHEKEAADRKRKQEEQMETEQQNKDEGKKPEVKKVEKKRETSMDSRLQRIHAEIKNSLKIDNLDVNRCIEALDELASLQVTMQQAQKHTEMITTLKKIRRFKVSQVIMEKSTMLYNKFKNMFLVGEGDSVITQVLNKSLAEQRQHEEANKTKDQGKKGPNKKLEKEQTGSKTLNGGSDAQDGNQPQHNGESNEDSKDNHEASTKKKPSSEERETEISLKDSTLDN
Procedure: A protein binding assay was performed by biolayer interferometry (BLI) as described previously. First, purified recombinant LEDGF/p75 protein was biotinylated using the Thermo EZLink long-chain biotinylation reagent. Then, biolayer interferometry (BLI) assay was performed using an OctetRED96 instrument from PALL/ForteBio. All assays were run at 30 °C with continuous 1000 rpm shaking. PBS with 0.01% Tween-20 was used as the assay buffer. Briefly, biotinylated LEDGF/p75 protein was tethered on Super Streptavidin (SSA) biosensors (ForteBio) by dipping sensors into 200 µl per well 50 µg/ml protein solutions. The measurement processes were all under computer control. Programme procedures were established as follows: For the initial step, biosensors were washed in assay buffer for 300 s to form a baseline; the biosensors labelled with biotin-LEDGF/p75 were exposed to 100 µM compounds for association, and were monitored for 600 s; and then, the biosensors were moved back into assay buffer to disassociate for another 1800s. Data were fit globally and generated automatically by Octet User software (version 9.0.0.10; Fortebio).

LEDGF/p75-IN interaction = tested on: LEDGF/p75-IN interaction; design: method as in PMID 21222490; details: cited from earlier work

With `NC(=O)CI` [Iodoacetamide] the IC50 ([1]; HTRF, 12-point dose-response 0.024 to 50 µM, His6-HIV-1 IN 50 nM, GST-IBD) was > 1e+07 nM.

`COc1cc(/C=C/C(=O)CC(=O)/C=C/c2ccc(O)c(OC)c2)ccc1O` [Compound 2, Curcumin] showed an IC50 [1] of 14500 nM.

For `O=c1c2ccccc2[se]n1-c1ccccc1` [Compound 1, 2-phenyl-1,2-benzisoselenazol-3-one], the IC50 [1] was 7700 nM, the “HTRF signal when IBD was pre-incubated with compound” value ([1]; IBD pre-incubated with ebselen) was “dramatical decrease” and the “HTRF signal when IN was pre-incubated with compound” value ([1]; IN pre-incubated with ebselen) was “no obvious signal change”. The “Inhibitory effect on LEDGF/p75 IBD-IN interaction in the presence of DTT” value ([1]; in the presence of 50 µM dithiothreitol (DTT)) was “completely abolished”, the “Time-dependent inhibition (change of affinity over time)” value ([1]; over 1 h) was “increase in its affinity” and the IC50 ([2]; first value of cell 1.1/0.9, difference not explained, read-out: IC50 (first of two values printed)) was 1.1 µM. The IC50 ([2]; second value of cell 1.1/0.9, difference not explained, read-out: IC50 (second of two values printed)) was 0.9 µM, the IC50 [3] was 0.05 µM and the EC50 (HIV-1) was 1.99 µM. For the same molecule, the IC50 [4] was 5 µM, the IC50 [5] was 0.063 µM and the IC50 [6] was 0.71 µM. For the same molecule, the CC50 [7] was 25.4 µM, the IC50 [8] was 1 µM and the IC50 [9] was 1.7 µM. For the same molecule, the Ki [10] was 0.52 µM, the IC50 [11] was 0.0069 µM and the IC50 [12] was 0.38 µM. The IC50 [13] was 8.33 µM, the IC50 [14] was 0.047 µM and the Kd (LEDGF/p75; BLI Octet Red, biotinylated LEDGF/p75, 30 °C) was 0.0133 µM. For the same molecule, the “Dissociation from LEDGF/p75” value (LEDGF/p75; BLI, dissociation in assay buffer 1800 s) was “do not show obvious dissociation”.

In the case of `CCN1C(=O)C=CC1=O` [N-Ethylmaleimide], the IC50 [1] is reported as 566000 nM.

With `O=S(=O)(c1c(O)c(Cl)cc(Cl)c1Cl)c1c(O)c(Cl)cc(Cl)c1Cl` [Compound 3, p38 MAP kinase inhibitor IV] the IC50 [1] was 117000 nM.

In the case of `CCN(CC)C(=S)SSC(=S)N(CC)CC` [Disulfiram], the IC50 [1] is reported as 23200 nM.

In the case of `O[C@@H](CS)[C@@H](O)CS` (racemic) [DTT, dithiothreitol], the “Inhibitory effect of DTT on LEDGF/p75-IN interaction” value (LEDGF/p75-IN interaction; at 50 µM) is given as “negligible” and the IC50 (LEDGF/p75-IN interaction) is given as 4500 µM.
